What was measured:
[1] = Compatibility with polyethylene sheets (efflorescence at room temperature); format: physicochemical; conditions: 1 mm sheets; for Compatibility 0.1% (number of days over which no efflorescence phenomena are detectable): 0.1 part in 100 parts polyethylene; for Compatibility 0.3% (number of days over which no efflorescence phenomena are detectable): 0.3 part in 100 parts polyethylene
Protocol: (§1) 100 Parts of polyethylene having a density of 0.917 are homogeneously mixed in a Brabender plastograph with 0.1 and 0.3 parts, respectively, of a light-stabilising agent of formula I at 180°C for 10 minutes. The resulting mixture is moulded in a platen press at 170°C to give 1 mm thick sheets, and these are then examined visually for undissolved constituents. The sheets are suspended at room temperature and periodically examined for efflorescence phenomena.
*Compatibility: number of days over which no efflorescence phenomena are […]

[2] = Solubility in polyethylene sheets (visual examination for undissolved constituents); format: physicochemical; conditions: 1 mm sheets; for Solubility 0.1%: 0.1 part in 100 parts polyethylene (density 0.917); for Solubility 0.3%: 0.3 part in 100 parts polyethylene (density 0.917)
Protocol: as §1

[3] = Light stabilization of polystyrene sheets, yellowing factor after exposure in Xenotest 150; conditions: exposed 2,000 hours in Xenotest 150; 0.25 part per 100 parts polystyrene, 2 mm sheets; no light stabilizer: 20.0
Protocol: 100 parts of polystyrene granules are mixed dry with 0.25 part of a light stabilizer from Table 4 below and the mixture is regranulated in an extruder and subsequently moulded on an injection moulding machine to give 2 mm thick sheets. The sheets obtained are exposed for 2,000 hours in the Xenotest 150 apparatus and their yellowing is determined as follows, from the yellowing factor: [formula] wherein Δ T denotes the loss in transmission at wavelengths 420 and 680 nm respectively, which has occurred during exposure, and T(560) denotes the transmission value in percent of the unexposed sample at 560 nm.

[4] = Light stabilization of polypropylene film, carbonyl (CO) extinction on exposure in Xenotest 150; conditions: 0.25 part per 100 parts polypropylene, 0.1 mm film, with 0.2 part antioxidant, no light stabilizer: 0.300 at 1,000 hours
Protocol: 100 parts of polypropylene powder (Moplen, fibre grade, from Messrs. Montedison) are homogenised with 0.2 part of β-(3,5-di-tert-butyl-4-hydroxyphenyl)-propionic acid octadecyl ester as the antioxidant and 0.25 part of a light stabilizer from Table 2 below, for 10 minutes in a Brabender plastograph at 200°C. The mass thus obtained is taken from the kneader as rapidly as possible and is pressed in a toggle press to give 2 - 3 mm thick sheets. A part of the pressed blank obtained is cut out and pressed between two high gloss hard aluminium foils for 6 minutes at 260°C and 12 tons pressure, using a manual hydraulic laboratory press, to give an 0.5 mm thick film which is immediately chilled in cold water. The 0.1 mm thick test film is produced from this 0.5 mm film under exactly the same conditions. Pieces of 60 × 44 mm are now punched from the 0.1 mm thick film and exposed in the Xenotest 150. At regular intervals of time, these test specimens are taken from the light exposure apparatus and examined for their carbonyl content in an IR-spectrophotometer. The increase in the carbonyl extinction during exposure to light is a measure of the photo-oxidative degradation of the polymer [see L. Balaban et al., J. Polymer Sci. Part C, 22, 1059-1071 (1969); J. F. Heacock, J. Polymer Sci. Part A-1, 22, 2921-34 (1969); D. J. Carlsson and DM. Wiles, Macromolecules 2,587-606 (1969)] and is, according to experience, associated with a deterioration of the mechanical properties of the polymer. Thus, for example, the film stabilised with antioxidant only is completely brittle when it reaches a carbonyl extinction of approx. 0.300. The protective action of the light stabilizers according to the invention can be seen from the following Table 3: […]

Row | Compatibility 0.1% (number of days over which no efflorescence phenomena are detectable) [1] [days] | Compatibility 0.3% (number of days over which no efflorescence phenomena are detectable) [1] [days] | Solubility 0.1% [2] | Solubility 0.3% [2] | SMILES | Y.F. (yellowing factor) [3] | CO extinction (5.85 μ) ([4]; exposure time 6,000 hours) | CO extinction (5.85 μ) ([4]; exposure time 5,000 hours)
1 | 200 | 200 | dissolv. | dissolv. | CCCCCCCCCCCCCCCCCCN1C(=O)C2(CCCCC2)NC12CCCCC2 [IV] | – | – | –
2 | 200 | 200 | dissolv. | dissolv. | C=CCN1C(=O)C2(CCCCC2)NC12CCCCC2 [II] | – | – | –
3 | 200 | 200 | dissolv. | dissolv. | CCCCCCCCN1C(=O)C2(CCCCC2)NC12CCCCC2 [III] | – | – | –
4 | 200 | 200 | dissolv. | dissolv. | CCCCCCCCOC(=O)CN1C(=O)C2(CCCCC2)NC12CCCCC2 [VIII] | – | – | –

Second part, the compound before the results:

Row | SMILES | Compatibility 0.1% (number of days over which no efflorescence phenomena are detectable) [1] [days] | Compatibility 0.3% (number of days over which no efflorescence phenomena are detectable) [1] [days] | Solubility 0.1% [2] | Solubility 0.3% [2] | Y.F. (yellowing factor) [3] | CO extinction (5.85 μ) ([4]; exposure time 6,000 hours) | CO extinction (5.85 μ) ([4]; exposure time 5,000 hours)
5 | O=C1N(CCCCN2C(=O)C3(CCCCC3)NC23CCCCC3)C2(CCCCC2)NC12CCCCC2 [VI] | – | – | – | – | 5.5 | 0.010 | –
6 | O=C1N(Cc2ccccc2)C2(CCCCC2)NC12CCCCC2 [I] | – | – | – | – | 4.5 | 0.010 | –
7 | O=C(CN1C(=O)C2(CCCCC2)NC12CCCCC2)OCC(COC(=O)CN1C(=O)C2(CCCCC2)NC12CCCCC2)(COC(=O)CN1C(=O)C2(CCCCC2)NC12CCCCC2)COC(=O)CN1C(=O)C2(CCCCC2)NC12CCCCC2 [XI] | – | – | – | – | – | – | 0.010

Reference: patent publication US3971757A, “3-Alkyl-4-oxo-imidazolidines and their 1-oxyls” (Ciba-Geigy Corporation, priority 1973, dated 1976)
